Source: ChEMBL document CHEMBL6127156, “Azaspirooctane-carboxylates as Novel Activators/Modulators of M4 for the Treatment of Alzheimer's Disease and Parkinson's Disease” (ACS Med Chem Lett, 2024)

What was measured:
Type in all cases: functional, cell-based
[1] = biological target: T1, Muscarinic acetylcholine receptor M4 (Homo sapiens, UniProt P08173); test: Modulatory activity at M4 receptor (unknown origin) expressed in CHO-K1 cells assessed as cAMP production by TR-FRET analysis
T1 sequence (P08173 whole entry): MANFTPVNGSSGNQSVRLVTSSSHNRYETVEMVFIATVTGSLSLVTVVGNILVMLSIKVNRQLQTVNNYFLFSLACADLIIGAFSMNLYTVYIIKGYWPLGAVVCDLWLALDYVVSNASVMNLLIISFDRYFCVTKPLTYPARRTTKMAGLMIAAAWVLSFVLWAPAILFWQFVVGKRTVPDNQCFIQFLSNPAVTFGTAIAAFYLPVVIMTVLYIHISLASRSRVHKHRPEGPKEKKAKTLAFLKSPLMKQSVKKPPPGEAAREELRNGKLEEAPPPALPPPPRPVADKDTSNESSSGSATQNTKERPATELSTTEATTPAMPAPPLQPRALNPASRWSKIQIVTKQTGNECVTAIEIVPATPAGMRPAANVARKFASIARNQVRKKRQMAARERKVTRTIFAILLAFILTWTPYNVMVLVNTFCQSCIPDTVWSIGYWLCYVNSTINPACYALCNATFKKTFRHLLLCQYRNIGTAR

[2] = biological target: T2, Muscarinic acetylcholine receptor M1 (Homo sapiens, UniProt P11229); test: Modulatory activity at M1 receptor (unknown origin) expressed in CHO-K1 cells assessed as intracellular calcium flux incubated for 30 mins by Fluo-8 dye based FLIPR analysis
T2 sequence (P11229 whole entry): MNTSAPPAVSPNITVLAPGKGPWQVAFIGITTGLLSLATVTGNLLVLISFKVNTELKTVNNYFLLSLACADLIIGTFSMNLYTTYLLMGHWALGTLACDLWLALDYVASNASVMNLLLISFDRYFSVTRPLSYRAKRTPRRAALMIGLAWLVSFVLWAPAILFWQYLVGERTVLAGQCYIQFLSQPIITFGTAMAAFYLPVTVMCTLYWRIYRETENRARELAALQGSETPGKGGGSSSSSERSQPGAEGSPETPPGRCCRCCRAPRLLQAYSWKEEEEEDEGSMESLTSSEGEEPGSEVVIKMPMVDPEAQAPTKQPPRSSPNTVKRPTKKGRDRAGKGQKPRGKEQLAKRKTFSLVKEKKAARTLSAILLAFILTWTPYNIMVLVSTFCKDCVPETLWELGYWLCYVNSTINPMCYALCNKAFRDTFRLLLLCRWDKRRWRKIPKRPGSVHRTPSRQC

[3] = biological target: T3, Muscarinic acetylcholine receptor M5 (Homo sapiens, UniProt P08912); test: Modulatory activity at M5 receptor (unknown origin) expressed in CHO-K1 cells assessed as intracellular calcium flux incubated for 30 mins by Fluo-8 dye based FLIPR analysis
T3 sequence (P08912 whole entry): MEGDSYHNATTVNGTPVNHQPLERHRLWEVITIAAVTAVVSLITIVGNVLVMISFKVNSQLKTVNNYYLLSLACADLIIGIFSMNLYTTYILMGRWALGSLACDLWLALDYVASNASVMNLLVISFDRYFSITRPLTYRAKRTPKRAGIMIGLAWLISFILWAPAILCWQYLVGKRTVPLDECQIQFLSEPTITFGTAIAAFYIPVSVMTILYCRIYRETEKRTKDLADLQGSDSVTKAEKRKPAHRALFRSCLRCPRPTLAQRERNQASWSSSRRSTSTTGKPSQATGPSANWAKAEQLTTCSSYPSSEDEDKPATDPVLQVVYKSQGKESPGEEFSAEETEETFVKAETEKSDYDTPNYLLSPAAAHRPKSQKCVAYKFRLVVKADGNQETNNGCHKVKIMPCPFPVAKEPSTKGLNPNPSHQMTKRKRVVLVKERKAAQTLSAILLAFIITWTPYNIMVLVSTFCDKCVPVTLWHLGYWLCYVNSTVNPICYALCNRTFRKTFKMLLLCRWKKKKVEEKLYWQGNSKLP

[4] = biological target: Muscarinic acetylcholine receptor M3 (Homo sapiens, UniProt P20309); test: Modulatory activity at M3 receptor (unknown origin) expressed in CHO-K1 cells assessed as intracellular calcium flux incubated for 30 mins by Fluo-8 dye based FLIPR analysis
Chain of Muscarinic acetylcholine receptor M3 (P20309 whole entry): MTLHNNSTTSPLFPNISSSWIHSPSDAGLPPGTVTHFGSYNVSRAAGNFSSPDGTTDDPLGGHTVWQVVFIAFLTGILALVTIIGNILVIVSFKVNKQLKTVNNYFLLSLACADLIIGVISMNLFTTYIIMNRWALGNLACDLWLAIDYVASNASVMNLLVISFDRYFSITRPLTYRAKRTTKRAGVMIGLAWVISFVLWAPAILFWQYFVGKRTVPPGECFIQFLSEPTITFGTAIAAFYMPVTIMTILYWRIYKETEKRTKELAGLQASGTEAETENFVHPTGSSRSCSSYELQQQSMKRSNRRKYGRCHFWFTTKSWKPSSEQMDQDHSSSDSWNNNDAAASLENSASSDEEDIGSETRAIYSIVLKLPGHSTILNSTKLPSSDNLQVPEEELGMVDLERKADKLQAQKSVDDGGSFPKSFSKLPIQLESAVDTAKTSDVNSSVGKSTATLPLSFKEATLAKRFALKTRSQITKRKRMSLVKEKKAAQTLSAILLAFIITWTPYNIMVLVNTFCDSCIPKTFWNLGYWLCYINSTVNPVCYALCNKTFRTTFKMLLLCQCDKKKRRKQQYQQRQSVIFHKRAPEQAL

[5] = biological target: T4, Muscarinic acetylcholine receptor M2 (Homo sapiens, UniProt P08172); test: Modulatory activity at M2 receptor (unknown origin) expressed in CHO-K1 cells assessed as cAMP production by TR-FRET analysis
T4 sequence (P08172 whole entry): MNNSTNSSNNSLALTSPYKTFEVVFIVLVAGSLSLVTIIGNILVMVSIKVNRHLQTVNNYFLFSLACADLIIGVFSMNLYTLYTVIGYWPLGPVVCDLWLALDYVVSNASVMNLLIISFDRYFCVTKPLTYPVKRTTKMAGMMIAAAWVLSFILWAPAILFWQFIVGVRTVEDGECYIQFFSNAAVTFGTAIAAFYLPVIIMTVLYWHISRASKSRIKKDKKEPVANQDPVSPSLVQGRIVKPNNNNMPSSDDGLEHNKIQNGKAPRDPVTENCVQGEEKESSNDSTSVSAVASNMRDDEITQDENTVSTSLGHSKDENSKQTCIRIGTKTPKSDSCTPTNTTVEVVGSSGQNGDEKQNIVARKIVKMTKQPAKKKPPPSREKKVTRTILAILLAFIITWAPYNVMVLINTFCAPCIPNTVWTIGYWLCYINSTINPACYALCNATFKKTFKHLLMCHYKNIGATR

Compound | EC50 [1] [nM] | EC50 [2] [µM] | EC50 [3] [µM] | EC50 [4] [µM] | EC50 [5] [µM]
CCOC(=O)N1CC2(CC[C@@H](N3CCN(c4cc(F)cnc4-c4cncc(OC)c4)CC3)C2)C1 | < 20 | < 0.02 | > 10 | > 10 | > 10
CCOC(=O)N1CC2(CC[C@@H](N3CCN(c4cc(F)cnc4-c4cncs4)CC3)C2)C1 | < 20 | < 0.02 | > 10 | > 10 | > 10
CCOC(=O)N1CC2(CC[C@@H](N3CCC(O)(c4cc(F)cnc4-c4cnccn4)CC3)C2)C1 | < 20 | – | – | – | > 10
CCOC(=O)N1CC2(CC[C@@H](N3CCN(c4cc(F)cnc4-c4cccc(CO)c4)CC3)C2)C1 | < 20 | > 10 | > 10 | > 10 | –
CCOC(=O)N1CC2(CC[C@@H](N3CCN(c4cc(F)cnc4-c4cnn(C(C)C)c4)CC3)C2)C1 | < 20 | > 10 | > 10 | > 10 | 0.1
CCOC(=O)N1CC2(CC[C@@H](N3CCN(c4cc(F)cnc4-c4ccc(=O)n(C)c4)CC3)C2)C1 | < 20 | > 10 | > 10 | > 10 | > 10
CCOC(=O)N1CC2(CC[C@@H](N3CCN(c4cccnc4-c4ccc(F)nc4)CC3)C2)C1 | < 20 | > 10 | 0.02 | > 10 | > 10
CCOC(=O)N1CC2(CC[C@@H](N3CCN(c4cc(F)cnc4-c4cnn(C(F)F)c4)CC3)C2)C1 | < 20 | > 10 | > 10 | > 10 | < 0.02
CCOC(=O)N1CC2(CC[C@H](N3CCC(O)(c4cc(F)cnc4-c4cnccn4)CC3)C2)C1 | 20 | – | – | – | > 10
CCOC(=O)N1CC2(CC[C@@H](N3CCN(c4cc(F)cnc4-c4ccc(=O)[nH]c4)CC3)C2)C1 | < 20 | < 0.02 | 0.02 | > 10 | > 10
CCOC(=O)N1CC2(CC[C@@H](N3CCN(c4cc(F)cnc4-c4cscn4)CC3)C2)C1 | < 20 | – | – | – | 0.1
